Where two headings read alike, the source gives them in different places.
Assays:
Assay type in all cases: cell-based
[1] = test system: Trypanosoma cruzi amastigotes cultured in 3T3 fibroblast cells; assay: Assay for growth inhibition of kinetoplastid parasite Trypanosoma cruzi (beta-galactosidase Tulahuen strain, CPRG readout); settings: Trypanosoma cruzi, Fibroblast, T. cruzi amastigotes in 3T3 fibroblast cells; read-out: Buckner infectious T. cruzi EC50
Summary of the method: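 3T3 fibroblasts (1,000 cells/well) plated overnight, treated with compound in DMSO, then infected with 10,000 Lac-Z-expressing Tulahuen trypomastigotes. After 6 days, 0.6 mM CPRG with 0.6% NP-40 added for 2 h at room temperature; absorbance gives relative intracellular amastigote numbers. Benznidazole and nifurtimox serve as positive controls.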

[2] = test system: Leishmania donovani axenic amastigote; assay: In vitro assay for growth inhibition of Leishmania donovani axenic amastigote (Cell TiterGlo luminescence); settings: Leishmania donovani, L. donovani axenic amastigotes in vitro; read-out: L. donovani amastigotes EC50
Summary of the method: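 Compound-treated wells received 9600 axenic amastigotes in RPMI 1640-based medium at pH 5.5 (37 °C, 5% CO2). Growth measured as ATP luminescence (CellTiter-Glo) after 2-day incubation; DMSO and reference compounds served as controls.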

[3] = test system: L. donovani HU3 strain in mouse peritoneal macrophages; assay: Assay for inhibition of parasitemia of Leishmania donovani in mouse macrophages (SYBR Green nuclei count, high-content imaging); settings: Leishmania donovani, Peritoneal macrophage, L. donovani in mouse peritoneal macrophages; read-out: L. donovani in Mouse Macrophages EC50
Summary of the method: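 Parasite numbers were counted from SYBR Green-stained nuclei imaged by high-content microscopy after paraformaldehyde fixation and Triton permeabilization. Before this, compound was applied for 5 days at 37° C to BALB/c peritoneal macrophages (2×10^4/well) that had been exposed 24 h to 4×10^5 L. donovani HU3 amastigotes harvested from infected mouse spleens.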

[4] = test system: Trypanosoma brucei brucei (Lister 427) strain; assay: Assay for growth inhibition against Trypanosoma brucei brucei (Cell TiterGlo ATP luminescence); settings: T. brucei brucei (Lister 427), read-out: T. Brucei (HAT) EC50
Summary of the method: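 Growth read-out is cellular ATP by CellTiter-Glo luminescence, measured 30 min after reagent addition, following 2-day incubation at 37 °C in CO2. Parasites (10,000/mL, HMI-9 plus 10% FBS and 10% serum plus) faced 10 threefold dilutions in duplicate; IC50 taken as 50% growth inhibition versus untreated.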

Row | SMILES | EC50 [1] [nM] | EC50 [2] [nM] | EC50 [3] [nM] | EC50 ([4]; Trypanosoma brucei) [nM] | EC50 [4] [nM]
1 | O=C(Nc1ccc(F)c(-n2cc3cc(N4CCCC4)cnc3n2)c1)N1CCC1 [Compound 163, N-{4-fluoro-3-[5-(pyrrolidin-1-yl)-2H-pyrazolo[3,4-b]pyridin-2-yl]phenyl}azetidine-1-carboxamide] | 2.7 | 5.8 | 4.1 | < 23 | –
2 | CC(C)c1cnc2nn(-c3cc(NC(=O)CCCC(F)(F)F)ccc3F)cc2c1 [Compound 214, 5,5,5-trifluoro-N-{4-fluoro-3-[5-(propan-2-yl)-2H-pyrazolo[3,4-b]pyridin-2-yl]phenyl}pentanamide] | 1420 | 4600 | 658 | 1060 | –
3 | O=C(Nc1ccc(F)c(-n2cc3cc(C4CCOCC4)cnc3n2)c1)N1CCC1 [Compound 160, N-{4-fluoro-3-[5-(oxan-4-yl)-2H-pyrazolo[3,4-b]pyridin-2-yl]phenyl}azetidine-1-carboxamide] | 5.1 | 4.3 | 9.8 | < 23 | –
4 | O=C(Nc1ccc(F)c(-n2cc3cc(N4CC5(CCO5)C4)cnc3n2)c1)N1CC(F)C1 [Compound 201, 3-fluoro-N-[4-fluoro-3-(5-{1-oxa-6-azaspiro[3.3]heptan-6-yl}-2H-pyrazolo[3,4-b]pyridin-2-yl)phenyl]azetidine-1-carboxamide] | 20 | 192 | 4 | 5 | –
5 | Cc1nc(C)c(C(=O)Nc2ccc(F)c(-n3cc4cc(-c5ncccc5CO)cnc4n3)c2)o1 [Compound 335] | 470 | 13 | 111 | 36 | –
6 | COCC1CN(c2cnc3nn(-c4cc(NC(=O)N5CC(F)C5)ccc4F)cc3c2)C1 [Compound 232, 3-fluoro-N-(4-fluoro-3-{5-[3-(methoxymethyl)azetidin-1-yl]-2H-pyrazolo[3,4-b]pyridin-2-yl]phenyl)azetidine-1-carboxamide] | 12 | 12 | 10 | – | 5
7 | CC(C)c1cnc2nn(-c3cc(NC(=O)C4CC4(F)F)ccc3F)cc2c1 (stereo not shown) [Compound 208, 2,2-difluoro-N-{4-fluoro-3-[5-(propan-2-yl)-2H-pyrazolo[3,4-b]pyridin-2-yl]phenyl}cyclopropane-1-carboxamide] | 358 | 921 | 1920 | 375 | –
8 | CC(C)Nc1cnc2nn(-c3cc(NC(=O)N4CC(F)C4)ccc3F)cc2c1 [Compound 200, 3-fluoro-N-(4-fluoro-3-{5-[(propan-2-yl)amino]-2H-pyrazolo[3,4-b]pyridin-2-yl}phenyl)azetidine-1-carboxamide] | 15 | 974 | 7 | 5 | –
9 | O=C(Nc1ccc(F)c(-n2cc3cc(C4CCN(Cc5ccccc5)CC4)cnc3n2)c1)N1CC(F)C1 [Compound 296, N-{3-[5-(1-benzylpiperidin-4-yl)-2H-pyrazolo[3,4-b]pyridin-2-yl]-4-fluorophenyl}-3-fluoroazetidine-1-carboxamide] | 5 | 216 | 2 | 5 | –
10 | O=C(Nc1ccc(F)c(-n2cc3cc(N4CC5CC(C4)O5)cnc3n2)c1)N1CC(F)C1 [Compound 240, 3-fluoro-N-[4-fluoro-3-(5-{6-oxa-3-azabicyclo[3.1.1]heptan-3-yl}-2H-pyrazolo[3,4-b]pyridin-2-yl)phenyl}azetidine-1-carboxamide] | 21 | 579 | 27 | 5 | –
11 | O=C(Nc1ccc(F)c(-n2cc3cc(N4CC5(COC5)C4)cnc3n2)c1)N1CC(F)C1 [Compound 171, 3-fluoro-N-[4-fluoro-3-(5-{2-oxa-6-azaspiro[3.3]heptan-6-yl}-2H-pyrazolo[3,4-b]pyridin-2-yl)phenyl}azetidine-1-carboxamide] | 47 | 9.5 | 16 | < 23 | –
12 | O=C(Nc1ccc(F)c(-n2cc3cc(N4CC5C(C4)C5(F)F)cnc3n2)c1)N1CC(F)C1 (stereo not shown) [Compound 204, N-[3-(5-{6,6-difluoro-3-azabicyclo[3.1.0]hexan-3-yl}-2H-pyrazolo[3,4-b]pyridin-2-yl)-4-fluorophenyl]-3-fluoroazetidine-1-carboxamide] | 2 | 74 | 4 | 5 | –
13 | CC(C)OC(=O)Nc1cnc2nn(-c3cc(NC(=O)N4CC[C@@H](F)C4)ccc3F)cc2c1 [Compound 136] | 170 | 30 | 19 | < 23 | –
14 | CC(C)c1cnc2nn(-c3cc(NC(=O)C4CC4C)ccc3F)cc2c1 (stereo not shown) [Compound 211, N-{4-fluoro-3-[5-(propan-2-yl)-2H-pyrazolo[3,4-b]pyridin-2-yl]phenyl}-2-methylcyclopropane-1-carboxamide] | 72 | 496 | 302 | 35 | –
15 | Cc1nc(C)c(C(=O)Nc2ccc(F)c(-n3cc4cc(-c5ccccn5)cnc4n3)c2)o1 [Compound 108, N-{4-fluoro-3-[5-(pyridin-2-yl)-2H-pyrazolo[3,4-b]pyridin-2-yl]phenyl}-2,4-dimethyl-1,3-oxazole-5-carboxamide] | 3.8 | 3.3 | 4 | < 23 | –
16 | Cc1cnc(C(=O)Nc2ccc(F)c(-n3cc4cc(C(C)C)cnc4n3)c2)cn1 [Compound 65, N-{4-fluoro-3-[5-(propan-2-yl)-2H-pyrazolo[3,4-b]pyridin-2-yl]phenyl}-5-methylpyrazine-2-carboxamide] | 960 | 1000 | 1200 | 1400 | –
17 | O=C(Nc1ccc(F)c(-n2cc3cc(CC(F)(F)F)cnc3n2)c1)N1CC(F)(F)C1 [Compound 166, 3,3-difluoro-N-{4-fluoro-3-[5-(2,2,2-trifluoroethyl)-2H-pyrazolo[3,4-b]pyridin-2-yl]phenyl}azetidine-1-carboxamide] | 1.7 | 2.5 | 3.7 | < 23 | –
18 | CC1(C)CN(c2cnc3nn(-c4cc(NC(=O)N5CC(F)C5)ccc4F)cc3c2)C1 [Compound 255, N-{3-[5-(3,3-dimethylazetidin-1-yl)-2H-pyrazolo[3,4-b]pyridin-2-yl]-4-fluorophenyl}-3-fluoroazetidine-1-carboxamide] | 15 | 42 | 28 | 5 | –
19 | CCC(C)(C)c1cnc2nn(-c3cc(NC(=O)N4CC[C@@H](F)C4)ccc3F)cc2c1 [Compound 49, (3R)-3-fluoro-N-{4-fluoro-3-[5-(2-methylbutan-2-yl)-2H-pyrazolo[3,4-b]pyridin-2-yl]phenyl}pyrrolidine-1-carboxamide] | 12000 | 25000 | 12000 | 3400 | –
20 | O=C(O)C1CCN(c2cnc3nn(-c4cc(NC(=O)N5CC(F)C5)ccc4F)cc3c2)CC1 [Compound 236, 1-(2-{2-fluoro-5-[(3-fluoroazetidine-1-carbonyl)amino]phenyl}-2H-pyrazolo[3,4-b]pyridin-5-yl)piperidine-4-carboxylic acid] | 20000 | 264 | 29700 | 1460 | –
21 | O=C(Nc1ccc(F)c(-n2cc3cc(-c4ccccn4)cnc3n2)c1)N1CCC1 [Compound 99, N-{4-fluoro-3-[5-(pyridin-2-yl)-2H-pyrazolo[3,4-b]pyridin-2-yl]phenyl}azetidine-1-carboxamide] | 1 | 1.3 | 2 | > 50000 | –
22 | CCCC(C)c1cnc2nn(-c3cc(NC(=O)N4CC(F)(F)C4)ccc3F)cc2c1 (stereo not shown) [Compound 34, 3,3-difluoro-N-{4-fluoro-3-[5-(pentan-2-yl)-2H-pyrazolo[3,4-b]pyridin-2-yl]phenyl}azetidine-1-carboxamide] | 160 | 200 | 270 | 150 | –
23 | O=C(Nc1ccc(F)c(-n2cc3cc(N4CC5(CCC5)C4)cnc3n2)c1)N1CC(F)C1 [Compound 243, N-[3-(5-{2-azaspiro[3.3]heptan-2-yl}-2H-pyrazolo[3,4-b]pyridin-2-yl)-4-fluorophenyl}-3-fluoroazetidine-1-carboxamide] | 82 | 2100 | 65 | 5 | –
24 | O=C(Nc1ccc(F)c(-n2cc3cc(N4CCC4)cnc3n2)c1)c1ccco1 [Compound 151, N-{3-[5-(azetidin-1-yl)-2H-pyrazolo[3,4-b]pyridin-2-yl]-4-fluorophenyl}furan-2-carboxamide] | 12 | 60 | 13 | < 23 | –
25 | Cc1nc(C(F)(F)F)oc1C(=O)Nc1ccc(F)c(-n2cc3cc(C(C)C)cnc3n2)c1 [Compound 78, N{4-fluoro-3-[5-(propan-2-yl)-2H-pyrazolo[3,4-b]pyridin-2-yl]phenyl}-4-methyl-2-(trifluoromethyl)-1,3-oxazole-5-carboxamide] | 450 | 800 | 870 | 530 | –
